The values that follow come from patent US6399377B1, “Use of anti-sense sequences to increase responsiveness to gene amplification” (priority 1999, dated 2002).

Each structure is given as a SMILES string.

This data set relates to SBP13-30 CHO cells. Put plainly: Acquired sensitivity to MTX of plasmid-transfected cells, crystal violet staining. The settings on record: 9 μM MTX, 0 μg DNA (non-transfected cells). It counts as cell-based, chinese hamster. Here is the method: In order to assess the level of expression of the anti-sense DHFR sequence and whether its expression effectively blocks DHFR+ expression i.e. renders the cells more responsive/sensitive to MTX treatment, SBP13-30 CHO cells subjected to transfections with three different plasmid concentrations of adHFR2/Neo 0 (control), 100 and 500 μg plasmid DNA, were grown in the absence (controls) or in the presence of MTX (9 μM). Equal amounts of cells from each of the transfections were plated onto duplicate sets of Petri dishes containing standard CHO culture medium, one set receiving cells treated with MTX and the other set receiving untreated cells. When the cells in the dishes without MTX approached confluent growth, the experiment was terminated and the surviving cells were visualized by staining with crystal violet.
As expected, with 0 μM MTX, heavy staining was observed. The staining was moderate-to-heavy in the 9 μM MTX/0 μg DNA dish. […] Cells transfected with high amounts of plasmid (500 μg plasmid DNA/dish) are more sensitive to MTX than cells transfected with lower amounts of plasmid (100 μg plasmid DNA/dish) or the non-transfected control cells (0 μg plasmid/dish). Thus, it is clear that the anti-sense DHFR plasmid successfully transfected the CHO cells and was expressed in these cells. […] In other words, the greater the DHFR^+ inhibition, the greater the MTX toxicity.

In the case of `CN(Cc1cnc2nc(N)nc(N)c2n1)c1ccc(C(=O)N[C@@H](CCC(=O)O)C(=O)O)cc1` [MTX, methotrexate], the “crystal violet staining of surviving cells” value is “moderate-to-heavy”.
